Measured values as given in patent US20260272868A1 (priority 2022, published 2026).
Values joined by “and” are separate entries in the source; they are usually repeats but may differ in a detail not shown here. Identical values can stand only once. Like-named read-outs stand apart in the source and are kept apart here.

Tests used:
[1] = Plasma protein binding, rapid equilibrium dialysis, human plasma; assay type: in vitro ADME
Description: (§1) A 1 mM stock solution of trazadone was prepared in DMSO and diluted 200-fold in mouse or human plasma to yield a final concentration of 5 μM. The final DMSO concentration was 0.5%. Rapid equilibrium dialysis (RED) was performed with a RED device containing a dialysis membrane with a molecular weight cut-off of 8,000 Daltons. Each dialysis insert contains two chambers. The red chamber is for plasma while the white chamber is for buffer.
(§2) For each dialysis insert, aliquots (200 μL) of positive control or test compound at 5 μM (n=2) were separately added to the plasma chamber and 350 μL of phosphate buffered saline (pH 7.4) was added to the buffer chamber. After sealing the RED device with an adhesive film, dialysis was performed in an incubator at 37° C. with shaking at 300 RPM for 4 hours. To assess recovery and stability, 50 μL aliquots of positive control and test compound were added to 96-deep well plates and quenched with 400 μL acetonitrile (for 0 min), while comparator aliquots were incubated at 37° C. for 4 hours along with the RED device.
(§3) Following dialysis, an aliquot of 50 μL was removed from each well (both plasma and buffer side) and diluted with an equal volume of the opposite matrix (dialyzed with the other matrix) to nullify the matrix effect. Similarly, 50 μL of buffer was added to recovery and stability samples. An aliquot of 100 μL was submitted for LC-MS/MS analysis. […]

[2] = system: head twitch response (HTR); assay type: in vivo, mice
Description: Male C57BL/6 mice (~7-9 weeks old) were used in these studies. Mice were housed 2 per cage under standard temperature- and humidity-controlled laboratory conditions with a 12-hour light/dark cycle. Mice had free access to food and water.
Both compounds were dissolved in saline vehicle at a dose volume of 10 mL/kg. Doses were corrected for salt form so that the dose administered represented free base.
Mice were randomly assigned to 1 of 6 treatment groups consisting of 2 subcutaneous injections (see Table 1), which were administered according to the schedule in FIG. 1. […] Behavior was videotaped by a camera (GoPro Hero 9) mounted above the testing chambers. Recorded video was uploaded for analysis of head twitch behavior. Number of head twitch responses (HTRs) was recorded for each animal for each 2-min bin. For each treatment group, the mean number of HTRs in each 2- or 10-min bin, and across the whole 30-min recording period, were analyzed.

[3] = Human plasma pharmacokinetic parameters of trazodone collected from the literature; assay type: in vivo; conditions: mean of literature values
in vivo = conditions: male, C57BL/6, mouse
Description: Male C57BL/6 mice, aged 8-12 weeks, were used in these studies. Mice were housed 4 per cage under standard temperature- and humidity-controlled laboratory conditions with a 12-hour light/dark cycle. Mice had free access to food and water but were fasted from 4 h prior to and until 2 h after dosing. Animals were randomly assigned to treatment groups.
Doses were corrected for salt form so that the dose administered represented free base.
Immediately after blood collection, plasma was harvested by centrifugation at 4,000 rpm for 10 min at 4° C. and samples were stored at −70±10° C. until bioanalysis. Following blood collection, animals were immediately sacrificed, the abdominal vena-cava was cut open, the whole body was perfused from the heart using 10 mL of normal saline, and brain samples were collected from all animals. After isolation, brain samples were rinsed three times in ice-cold normal saline (for 5-10 seconds/rinse using ~5-10 mL normal saline in a disposable petri dish for each rinse) and dried on blotting paper. Brain samples were homogenized using ice-cold phosphate-buffered saline (pH 7.4). Total homogenate volume was three times the tissue weight. All homogenates were stored at −70±10° C. until bioanalysis. For bioanalysis, 20 μL aliquots of plasma/brain study samples or spiked plasma/brain calibration standards were added to individual pre-labeled micro-centrifuge tubes followed by 200 μL of an internal standard solution (cetirizine, 50 ng/mL in acetonitrile) except for blanks, where 200 μL of acetonitrile was added. Samples were vortexed for 5 minutes and then centrifuged for 10 minutes at 4,000 rpm at 4° C. Following centrifugation, 200 μL of each clear supernatant was transferred to a 96-well plate and analyzed with a fit-for-purpose LC-MS/MS method, with authentic samples of each analyte used for calibration and identification.

[4] = Plasma protein binding, rapid equilibrium dialysis, mouse plasma; assay type: in vitro ADME
Description: as §1, §2, §3

[5] = cited from earlier work

O=c1n(CCCN2CCN(c3cccc(Cl)c3)CC2)nc2ccccn12 [trazodone]
bound fraction in plasma ([1]; 5 μM, 4 hours, 37° C.): 90.2%
fraction unbound at 4 h, 5 μM ([1]; pH 7.4, 37° C.): 0.098
HTR reversal quantified in 10-minute bins ([2]; 0-10, 10-20, 20-30 min post trazodone, even at the lowest dose): rapid and robust HTR reversal effect
onset of reversal of DOPR HTR ([2]; all trazodone doses tested, SC, 45 min after DOPR 3.2 mg/kg SC): ≤ 2 min
persistence of HTR reversal effect ([2]; all trazodone doses tested, limited by recording period): ≥ 30 min
reversal of DOPR-induced HTR in the 20-30-minute time bin ([2]; lowest dose of trazodone (1 mg/kg SC)): full reversal
minimum efficacious concentration (MEC) in plasma for reversal ([2]; mice, total plasma concentration 25 min after 1 mg/kg SC trazodone): ≤ 369 ng/mL
reversal of HTR induced by DOPR ([2]; trazodone 1, 1.8, 3.2 or 10 mg/kg SC 45 min after DOPR 3.2 mg/kg SC, 30-min recording, all doses incl. lowest): fully reversed
Cmax (ng/mL per mg dosed) ([3]; PO): 17.2 ng/mL per mg dosed
half-life ([3]; human, plasma, IV): 6.3 h
Tmax ([3]; human, plasma, PO): 1.5 h
half-life ([3]; human, plasma, PO): 9.1 h
concentration at 5 min (in vivo; 1 mg/kg): 800 ng/mL and 700 ng/g
concentration at 15 min (in vivo; 1 mg/kg): 504 ng/mL and 584 ng/g
concentration at 25 min (in vivo; 1 mg/kg): 369 ng/mL and 255 ng/g
concentration at 5 min (in vivo; 3.2 mg/kg): 1480 ng/mL and 1750 ng/g
concentration at 15 min (in vivo; 3.2 mg/kg): 1350 ng/mL and 1600 ng/g
concentration at 25 min (in vivo; 3.2 mg/kg): 1020 ng/mL and 674 ng/g
concentration at 5 min (in vivo; 10 mg/kg): 3490 ng/mL and 7930 ng/g
concentration at 15 min (in vivo; 10 mg/kg): 2870 ng/mL and 5100 ng/g
concentration at 25 min (in vivo; 10 mg/kg): 1910 ng/mL and 3580 ng/g
bound fraction in plasma ([4]; 5 μM, 4 hours, 37° C.): 94.4%
fraction unbound at 4 h, 5 μM ([4]; pH 7.4, 37° C.): 0.056
T1/2 ([5]; 25 mg IV, Greenblatt, 1987): 5.3 h
Cmax (ng/mL per mg dosed) ([5]; 50 mg PC, Greenblatt, 1987): 18.8 ng/mL per mg dosed
T1/2 ([5]; 50 mg PC, Greenblatt, 1987): 5.2 h
Tmax ([5]; 50 mg PC, Greenblatt, 1987): 1.02 h
Cmax (ng/mL per mg dosed) ([5]; 50 mg PO, Gammans, 1984): 17.16 ng/mL per mg dosed
T1/2 ([5]; 50 mg PO, Gammans, 1984): 13.3 h
Tmax ([5]; 50 mg PO, Gammans, 1984): 0.9 h
T1/2 ([5]; 90 mg IV, Nilsen, 1992): 7.3 h
Cmax (ng/mL per mg dosed) ([5]; 100 mg PO, Bayer, 1983): 16 ng/mL per mg dosed
T1/2 ([5]; 100 mg PO, Bayer, 1983): 6.0 h
Tmax ([5]; 100 mg PO, Bayer, 1983): 2 h
Cmax (ng/mL per mg dosed) ([5]; 100 mg PO, Kale, 2015): 15.47 ng/mL per mg dosed
T1/2 ([5]; 100 mg PO, Kale, 2015): 13.1 h
Tmax ([5]; 100 mg PO, Kale, 2015): 2.25 h
Cmax (ng/mL per mg dosed) ([5]; 100 mg PO, Nilsen, 1992): 18.8 ng/mL per mg dosed
T1/2 ([5]; 100 mg PO, Nilsen, 1992): 7.8 h
Tmax ([5]; 100 mg PO, Nilsen, 1992): 1.34 h
half-life ([5]; human): 6 to 12 h
